Columns and labels:
[1] = tested on: arrhythmia induced by aconitine; experiment: Effects on arrhythmia caused by aconitine in rats; format: in vivo, SD rats; settings: 200 mg · kg^−1 intravenous, n = 10, p < 0.05 vs physiological saline, monohydrate
Procedure: 20 SD rats, male and female, body weight 185±19 g, randomly divided into 2 groups, separately administrated via intravenous injection with physiological saline, puerarin monohydrate (prepared by method of Example 1) (which was added with cosolvent to form an injectable solution) 200 mg·kg^−1. The rats were anesthetized with 3% pentobarbital sodium 40 mg·kg^−1, and fixed in supine position on operating table. The rats were subjected to injection via sublingual vein, after 6 min, subjected to intravenous injection of 0.0025% aconitine at a constant rate, 2 μg·min^−1 (0.08 ml·min^−1), the time of ventricular premature beat (VP), ventricular tachycardia (VT), ventricular fibrillation (VF) and cardiac arrest (CA) were recorded, and corresponding dosages were calculated.

[2] = tested on: cerebral ischemia-reperfusion; experiment: Effects on cerebral ischemia-reperfusion in rats (NO, NOS, MDA, SOD in brain tissue); format: in vivo, Wistar male rats; settings: rats after ischemia-reperfusion, 400 mg/kg intragastric twice per day, monohydrate
Procedure: 36 Wistar male rats, body weight 250-300 g, were randomly divided into 3 groups: sham operation group, ischemia-reperfusion group, and the present invention drug group, 12 rats per group. The rats of the present invention drug group were intragastrically administered with physiological saline suspension of puerarin monohydrate (prepared by method of Example 1) in a dose of 400 mg/kg, volume of 2 ml, twice per day, for consecutive 7 days, and cerebral ischemia operation was performed 60 min after the last administration; the rats of sham operation group and the ischemia-reperfusion group were administered separately with isometric physiological saline 2 ml.
The rats were anesthetized with 10% chloral hydrate (3.5 ml/kg) by intraperitoneal injection, fixed at supine position, and molded by a modified Zea Longa suture method referring to document (Journal of Shanghai Jiaotong University (medical Science), 2007, 27(10): 1218-1222); suture was inserted only 10 mm in sham operation group, and the other steps were the same as the model groups. […] After successful modeling, the rats of the present invention drug group were administered twice per day in the same dose as above, while those of the sham operation group and the ischemia-reperfusion group were administered isometric physiological saline 2 ml. Sutures were drawn out 2 hours after modeling, the rats were executed 24 hours after reperfusion, and their brain weights were measured rapidly. 10% brain tissue homogenates were prepared at low temperature with physiological saline, centrifuged under 3000 r/min for 10 min at low temperature, the deposit was discarded, and the supernatant was taken and measured with commercial kits of SOD, MDA, NO, NOS according to their specifications to determine contents or activities of SOD, MDA, NO, NOS.

Long-term stability test = format: physicochemical
[3] = listed as The present invention drug
[4] = listed as the present invention drug

O=c1c(-c2ccc(O)cc2)coc2c([C@@H]3O[C@H](CO)[C@@H](O)[C@H](O)[C@H]3O)c(O)ccc12 [Sample 1, puerarin monohydrate]
Dose of aconitine causing cardiac arrest (CA) ([1]; listed as PW): 0.0951 ± 0.0086 mg/kg | Dose of aconitine causing ventricular fibrillation (VF) ([1]; listed as PW): 0.0635 ± 0.0077 mg/kg | Dose of aconitine causing ventricular premature beat (VP) ([1]; listed as PW): 0.0331 ± 0.0073 mg/kg | Dose of aconitine causing ventricular tachycardia (VT) ([1]; listed as PW): 0.0449 ± 0.0072 mg/kg | Dose of aconitine causing cardiac arrest (CA) [1]: significantly increased | Dose of aconitine causing ventricular fibrillation (VF) [1]: significantly increased | Dose of aconitine causing ventricular premature beat (VP) [1]: significantly increased | Dose of aconitine causing ventricular tachycardia (VT) [1]: significantly increased | MDA in brain tissue [2, 3]: 2.54 ± 0.57 nmol/mL | NO in brain tissue [2, 3]: 26 ± 6.13 µmol/L | NOS in brain tissue [2, 3]: 23 ± 5.22 U/ml | SOD in brain tissue [2, 3]: 243 ± 19.66 U/ml | MDA in brain tissue [2, 4]: significantly decreased | NO in brain tissue [2, 4]: significantly decreased | NOS in brain tissue [2, 4]: decreased | SOD in brain tissue [2, 4]: increased significantly | Marked content (%) (Long-term stability test; sampling time 0 month): 99.5% | Property (Long-term stability test; sampling time 0 month): off-white powder | Related substance (%) (Long-term stability test; sampling time 0 month): <2% | Marked content (%) (Long-term stability test; sampling time 3 month): 99.6% | Property (Long-term stability test; sampling time 3 month): off-white powder | Related substance (%) (Long-term stability test; sampling time 3 month): <2% | Marked content (%) (Long-term stability test; sampling time 6 month): 99.5% | Property (Long-term stability test; sampling time 6 month): off-white powder | Related substance (%) (Long-term stability test; sampling time 6 month): <2% | Marked content (%) (Long-term stability test; sampling time 9 month): 99.4% | Property (Long-term stability test; sampling time 9 month): off-white powder | Related substance (%) (Long-term stability test; sampling time 9 month): <2% | Marked content (%) (Long-term stability test; sampling time 12 month): 99.4% | Property (Long-term stability test; sampling time 12 month): off-white powder | Related substance (%) (Long-term stability test; sampling time 12 month): <2%
